This data set is described as follows: Evaluation of Solubility in 5.0 mass % ammonia water. In kind it is physicochemical. Conditions: 100 ppm and 1,000 ppm, shaken 3 hours, checked visually; for (B) Solubitity: component (B). The protocol:
The solubility can be evaluated by known methods. For example, it can be determined under the condition of 20-35° C. (more preferably 25±2° C.) by providing a flask charged with 100 ppm of the above (A) or the below-mentioned (B) in 5.0 mass % ammonia water, covering the flask with a cap, shaking for 3 hours in a shaker, and confirming whether (A) or (B) is dissolved or not. The shaking may be stirring. Dissolution can be also judged visually. […] In the present specification, soluble includes slightly soluble in a broad sense. In the present specification, the solubility becomes low in the order of insoluble, hardly soluble and soluble. In the present specification, slightly soluble is less soluble than soluble and more soluble than hardly soluble in a narrow sense.
4 mg of each component (for example, 2,2-bis (4-hydroxyphenyl) propane) to be used thereafter is put in a 50 mL sample bottle, and 5.0 mass % ammonia water is added to make the total amount to 40 g. Covering this with a cap, it is shaken and stirred for 3 hours. This gives a liquid having a component concentration of 100 ppm.
The same procedure as described above is carried out except that the amount of each component added is changed to 40 mg, and a liquid having a component concentration of 1,000 ppm is obtained. Their solubility is checked visually. Evaluation criteria are as shown below.
X: When the dissolution residue is confirmed at 100 ppm and 1,000 ppm, it is judged to be insoluble or hardly soluble.
Y: When the dissolution residue is not confirmed at 100 ppm but confirmed at 1,000 ppm, it is judged to be slightly soluble.
Z: When the dissolution residue is confirmed at neither 100 ppm nor 1,000 ppm, it is judged to be soluble.

`Oc1ccc(C(c2ccccc2)(c2ccccc2)c2ccc(O)cc2)cc1` [A11, 4,4′-dihydroxytetraphenylmethane]: under “component (A)”, the “(A) Solubitity” value is “X (When the dissolution residue is confirmed at 100 ppm and 1,000 ppm, it is judged to be insoluble or hardly soluble.)”. `CC(C)(c1ccc(O)cc1)c1ccc(O)cc1` [B1, 2,2-bis(4-hydroxyphenyl)propane]: the “(B) Solubitity” value was “Y (When the dissolution residue is not confirmed at 100 ppm but confirmed at 1,000 ppm, it is judged to be slightly soluble.)”. With `Oc1ccc(CC(c2ccc(O)cc2)(c2ccc(O)cc2)c2ccc(O)cc2)cc1` [B2, 1,2,2,2-tetrakis(4-hydroxyphenyl)ethane], the “(B) Solubitity” value is on record as “Z (When the dissolution residue is confirmed at neither 100 ppm nor 1,000 ppm, it is judged to be soluble.)”. Turning to `OC1CCCC(O)C1` (centres unmarked) [B3, 1,3-cyclohexanediol], the “(B) Solubitity” value is “Z (When the dissolution residue is confirmed at neither 100 ppm nor 1,000 ppm, it is judged to be soluble.)”. Turning to `Cc1ccc(O)c(Cc2cc(C)cc(Cc3cc(C)ccc3O)c2O)c1` [B4, 2,6-bis[(2-hydroxy-5-methylphenyl)methyl]-4-methylphenol], the “(B) Solubitity” value is “Y (When the dissolution residue is not confirmed at 100 ppm but confirmed at 1,000 ppm, it is judged to be slightly soluble.)”.

In the case of `Cc1ccc(O)c(Cc2cc(C)ccc2O)c1` [B5, 2,2′-methylenebis(4-methylphenol)], the “(B) Solubitity” value is listed as “Z (When the dissolution residue is confirmed at neither 100 ppm nor 1,000 ppm, it is judged to be soluble.)”. As for `Oc1ccc(-c2ccc(O)cc2)cc1` [B6, 4,4′-dihydroxybiphenyl], the “(B) Solubitity” value is given as “Y (When the dissolution residue is not confirmed at 100 ppm but confirmed at 1,000 ppm, it is judged to be slightly soluble.)”. Same read-out and setting: then `Oc1ccc2cc(O)ccc2c1` [B7, 2,6-naphthalenediol], with “Y (When the dissolution residue is not confirmed at 100 ppm but confirmed at 1,000 ppm, it is judged to be slightly soluble.)”. As for `CC(C)(O)C#CC(C)(C)O` [B8, 2,5-dimethyl-3-hexyne-2,5-diol], the “(B) Solubitity” value was “Z (When the dissolution residue is confirmed at neither 100 ppm nor 1,000 ppm, it is judged to be soluble.)”. The same measure, in the same setting: then `CCC(C)(O)C#CC(C)(O)CC` (centres unmarked) [B9, 3,6-dimethyl-4-octin-3,6-diol], with “Z (When the dissolution residue is confirmed at neither 100 ppm nor 1,000 ppm, it is judged to be soluble.)”. Still for that read-out and setting: then `CC(C)(C)c1cc(O)c(C(C)(C)C)cc1O` [B10, 2,5-di-tert-butylhydroquinone], with “Z (When the dissolution residue is confirmed at neither 100 ppm nor 1,000 ppm, it is judged to be soluble.)”.

The record behind these values is patent US12068150B2, “Substrate cleaning solution, and using the same, method for manufacturing cleaned substrate and method for manufacturing device” (Merck Patent GmbH, priority 2018, dated 2024).
